Test system: T1, Sub1
T1 construct: signal peptide removed; pET-30a(+) NcoI/XhoI, His6-tagged (tag kept), expressed in E. coli SHuffle T7
Experiment: spectrophotometric p-nitrophenol release at […] nm, Michaelis-Menten fit
Format: biochemical, Streptomyces scabiei
Details: Tris-HCl 20 mM, pH 7.5, room temperature; Triton X-100 (0.5%) apparently present

**Q.** For `CCCC(=O)Oc1ccc([N+](=O)[O-])cc1` [p-nitrophenyl butyrate], which Km is on record?
**A.** 570 ± 40 µM
